# According to patent US7279175B2, “Stent coated with a sustained-release drug delivery and method for use thereof” (Psivida Inc., priority 2001, dated 2007):
# Tests used:
# [1] = In vitro release from stents coated with 1:1 mixture of TA and 5FU without chemical linkage; format: physicochemical; settings: mixture coating, 0.1M phosphate buffer pH 7.4, 37° C.
# Protocol: Stents were coated with a mixture of TA and 5FU in a mole-ratio of 1 to 1 without chemical linkage. The release rate was determined in vitro by placing the coated stents in 0.1M phosphate buffer (pH 7.4) at 37° C. Samples of the buffer solution were periodically removed for analysis by HPLC, and the buffer was replaced to avoid any saturation effects.
# Because of the hydrophilic nature of 5FU, this compound was released from the mixture coating much faster than from the codrug coating. Within 4 weeks, more than 95% of total 5FU was released. TA release from the drug mixture coating was much slower, with about 20% TA released over the first 6 weeks.
# [2] = Release test from silicone-coated glass plates into phosphate buffer (HPLC); settings: silicone coating, up to day 6; detected plus hydrolyzed
# Description: Samples were taken daily, and the entire release media was replaced with fresh media at each sampling time. […] Again, the data represent both intact and constituents of the inventive compound.
# [3] = Release test from PVA-coated glass plates into phosphate buffer (HPLC); format: physicochemical; settings: 0.1 M phosphate buffer pH 7.4, 37° C., intact plus constituents
structure (smiles),measurement,setting,value
"O=c1[nH]cc(F)c(=O)[nH]1 [5FU, 5-fluorouracil]",total 5FU released,[1]; within 4 weeks,more than 95%
"CC1(C)O[C@@H]2C[C@H]3[C@@H]4CCC5=CC(=O)C=C[C@]5(C)[C@@]4(F)[C@@H](O)C[C@]3(C)[C@]2(C(=O)CO)O1 [TA, triamcinolone acetonide]",TA released,[1]; over the first 6 weeks,about 20%
COc1ccc2cc(C(C)C(=O)OCn3cc(F)c(=O)[nH]c3=O)ccc2c1 (stereo not shown) [TC-112],total TC-112 released,[2],122.4 mg
same,release rate (slope of total cumulative release curve),[3],10 µg/day
